Laboratory results from ChEMBL document CHEMBL4364293, “Design, Synthesis, and Structure-Activity Relationship of 7-Propanamide Benzoxaboroles as Potent Anticancer Agents” (J Med Chem, 2019).
Activity calls are given as the source filed them. No cut-off for these calls is given here.

What was measured:
[1] = Efflux ratio of apparent permeability from basolateral to apical over apical to basolateral side in human Caco2 cells; format: ADME, cell-based; conditions: Caco-2
SK-OV-3 [2] = test: Induction of apoptosis in human SKOV3 cells after 48 hrs by Annexin V-FITC/propidium iodide staining based FACS analysis (reference value: 1.06%); format: functional, cell-based
NCI-H460 [3] = test: Induction of apoptosis in human NCI-H460 cells assessed as increase in cleaved PARP expression at low concentration after 48 hrs by Western blot analysis; format: functional, cell-based
[4] = Toxicity in BALB/c mouse xenografted with human SW480 cells assessed as reduction in body weight at 2 to 10 mg/kg, ip administered once daily for 33 days and measured every 3 days during compound dosing; format: organism-based; conditions: in vivo
SK-OV-3 [5] = test: Induction of apoptosis in human SKOV3 cells assessed as necrotic cells at 1 uM after 48 hrs by Annexin V-FITC/propidium iodide staining based FACS analysis (reference value: 1.06%); format: functional
[6] = Selectivity ratio, ratio of IC50 for human WI38 cells to IC50 for human SKOV3 cells; format: toxicity; conditions: WI38 cells versus SKOV3 cells, read-out: Ratio IC50
[7] = Clearance in Sprague-Dawley rat at 2 mg/kg, iv by non-compartmental analysis; format: ADME, organism-based; conditions: in vivo
[8] = Cmax in Sprague-Dawley rat at 10 mg/kg, po by non-compartmental analysis; format: ADME, organism-based; parameters: dose 10 mg/kg, route oral; conditions: in vivo
SK-OV-3 [9] = test: Antiproliferative activity against human SKOV3 cells after 72 hrs by MTT assay; format: functional, cell-based; conditions: SK-OV-3, 72 h
SK-OV-3 [10] = test: Induction of apoptosis in human SKOV3 cells assessed as viable cells at 1 uM after 48 hrs by Annexin V-FITC/propidium iodide staining based FACS analysis (reference value: 91%); format: functional; conditions: SK-OV-3, 48 h, read-out: Activity
SK-OV-3 [11] = test: Induction of apoptosis in human SKOV3 cells assessed as necrotic cells at 3 uM after 48 hrs by Annexin V-FITC/propidium iodide staining based FACS analysis (reference value: 1.06%); format: functional
[12] = Volume of distribution at steady state in Sprague-Dawley rat at 2 mg/kg, iv by non-compartmental analysis; format: ADME, organism-based; conditions: in vivo, read-out: Vdss
SK-OV-3 [13] = test: Induction of apoptosis in human SKOV3 cells assessed as viable cells at 3 uM after 48 hrs by Annexin V-FITC/propidium iodide staining based FACS analysis (reference value: 91%); format: functional; conditions: SK-OV-3, 48 h, read-out: Activity
WI-38 = test: Cytotoxicity against human WI38 cells after 72 hrs by MTT assay; format: cell-based; conditions: WI-38, 72 h
HCT-116 = test: Antiproliferative activity against human HCT116 cells after 72 hrs by MTT assay; format: functional, cell-based; conditions: HCT-116, 72 h
NCI-H460 [14] = test: Induction of apoptosis in human NCI-H460 cells assessed as increase in cleaved caspase-3 expression at low concentration after 48 hrs by Western blot analysis; format: functional, cell-based
SK-OV-3 [15] = test: Induction of apoptosis in human SKOV3 cells assessed as early apoptotic cells at 3 uM after 48 hrs by Annexin V-FITC/propidium iodide staining based FACS analysis (reference value: 1.95%); format: functional
SK-OV-3 [16] = test: Inhibition of colony formation in human SKOV3 cells at 0.0625 to 1 uM supplemented with fresh medium containing compound every 72 hrs for 2 weeks by crystal violet staining based assay; format: functional, cell-based
[17] = Half-life in Sprague-Dawley rat at 2 mg/kg, iv by non-compartmental analysis; format: ADME, organism-based; conditions: in vivo
[18] = Tmax in Sprague-Dawley rat at 10 mg/kg, po by non-compartmental analysis; format: ADME, organism-based; conditions: in vivo
[19] = Oral bioavailability in Sprague-Dawley rat at 10 mg/kg by non-compartmental analysis; format: ADME, organism-based; conditions: in vivo
SK-OV-3 [20] = test: Induction of apoptosis in human SKOV3 cells assessed as late apoptotic cells at 1 uM after 48 hrs by Annexin V-FITC/propidium iodide staining based FACS analysis (reference value: 5.97%); format: functional
MDA-MB-231 = test: Antiproliferative activity against human MDA-MB-231 cells after 72 hrs by MTT assay; format: functional, cell-based; conditions: MDA-MB-231, 72 h
SK-OV-3 [21] = test: Induction of apoptosis in human SKOV3 cells assessed as early apoptotic cells at 1 uM after 48 hrs by Annexin V-FITC/propidium iodide staining based FACS analysis (reference value: 1.95%); format: functional
SK-OV-3 [22] = test: Induction of apoptosis in human SKOV3 cells assessed as viable cells at 10 uM after 48 hrs by Annexin V-FITC/propidium iodide staining based FACS analysis (reference value: 91%); format: functional; conditions: SK-OV-3, 48 h, read-out: Activity
[23] = Half-life in Sprague-Dawley rat at 10 mg/kg, po by non-compartmental analysis; format: ADME, organism-based; conditions: in vivo
[24] = target: Leucine--tRNA ligase, cytoplasmic (Homo sapiens) (UniProt Q9P2J5); test: Inhibition of human leucyl-tRNA synthetase
Leucine--tRNA ligase, cytoplasmic (Homo sapiens), sequence (Q9P2J5 whole entry, looked up): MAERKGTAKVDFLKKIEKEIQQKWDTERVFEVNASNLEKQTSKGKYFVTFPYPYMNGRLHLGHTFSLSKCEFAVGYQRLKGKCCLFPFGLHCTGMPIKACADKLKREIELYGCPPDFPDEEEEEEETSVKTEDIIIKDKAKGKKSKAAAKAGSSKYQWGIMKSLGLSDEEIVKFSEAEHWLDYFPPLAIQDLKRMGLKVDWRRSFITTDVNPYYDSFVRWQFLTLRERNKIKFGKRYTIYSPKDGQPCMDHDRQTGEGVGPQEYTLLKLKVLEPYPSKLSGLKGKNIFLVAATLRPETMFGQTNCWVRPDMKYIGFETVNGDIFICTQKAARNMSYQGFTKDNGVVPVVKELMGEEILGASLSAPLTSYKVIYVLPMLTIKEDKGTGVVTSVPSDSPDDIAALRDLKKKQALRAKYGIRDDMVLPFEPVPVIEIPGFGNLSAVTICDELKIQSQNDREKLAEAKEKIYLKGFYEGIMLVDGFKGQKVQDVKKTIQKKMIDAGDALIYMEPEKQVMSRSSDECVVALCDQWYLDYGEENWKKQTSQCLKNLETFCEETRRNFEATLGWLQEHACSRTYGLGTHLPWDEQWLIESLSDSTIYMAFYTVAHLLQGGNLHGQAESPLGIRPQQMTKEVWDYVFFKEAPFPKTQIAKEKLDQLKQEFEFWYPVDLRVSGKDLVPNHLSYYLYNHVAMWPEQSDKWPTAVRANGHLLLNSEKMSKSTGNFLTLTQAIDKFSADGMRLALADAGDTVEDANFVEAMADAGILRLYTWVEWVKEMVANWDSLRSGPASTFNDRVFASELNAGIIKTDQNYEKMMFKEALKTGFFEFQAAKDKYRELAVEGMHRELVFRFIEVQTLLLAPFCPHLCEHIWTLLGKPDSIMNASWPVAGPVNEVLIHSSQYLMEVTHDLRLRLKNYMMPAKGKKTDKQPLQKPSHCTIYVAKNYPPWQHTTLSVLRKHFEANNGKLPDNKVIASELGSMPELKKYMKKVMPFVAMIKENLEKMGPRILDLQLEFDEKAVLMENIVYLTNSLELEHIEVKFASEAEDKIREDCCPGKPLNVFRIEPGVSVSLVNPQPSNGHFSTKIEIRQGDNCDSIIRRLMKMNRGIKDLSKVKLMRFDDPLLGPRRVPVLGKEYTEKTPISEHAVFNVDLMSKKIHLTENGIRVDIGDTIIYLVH

[25] = Apparent permeability across apical to basolateral side in human Caco2 cells; format: ADME, cell-based; conditions: Caco-2
NCI-H460 [26] = test: Induction of apoptosis in human NCI-H460 cells assessed as increase in cleaved caspase-9 expression at low concentration after 48 hrs by Western blot analysis; format: functional, cell-based
[27] = AUC infinity in Sprague-Dawley rat at 2 mg/kg, iv by non-compartmental analysis; format: ADME, organism-based; parameters: dose 2 mg/kg, time infinity, route intravenous; conditions: in vivo
SW480 [28] = test: Antitumor activity against human SW480 cells xenografted in ip dosed BALB/c mouse assessed as reduction in tumor volume administered once daily for 33 days and measured every 3 days during compound dosing; format: functional, organism-based
SK-OV-3 [29] = test: Induction of apoptosis in human SKOV3 cells assessed as early apoptotic cells at 10 uM after 48 hrs by Annexin V-FITC/propidium iodide staining based FACS analysis (reference value: 1.95%); format: functional
SK-OV-3 [30] = test: Induction of apoptosis in human SKOV3 cells assessed as late apoptotic cells at 10 uM after 48 hrs by Annexin V-FITC/propidium iodide staining based FACS analysis (reference value: 5.97%); format: functional
[31] = AUC infinity in Sprague-Dawley rat at 10 mg/kg, po by non-compartmental analysis; format: ADME, organism-based; parameters: dose 10 mg/kg, time infinity, route oral; conditions: in vivo
[32] = Apparent permeability across basolateral to apical side in human Caco2 cells; format: ADME, cell-based; conditions: Caco-2
SK-OV-3 [33] = test: Induction of apoptosis in human SKOV3 cells assessed as necrotic cells at 10 uM after 48 hrs by Annexin V-FITC/propidium iodide staining based FACS analysis (reference value: 1.06%); format: functional
SW480 [34] = test: Antitumor activity against human SW480 cells xenografted in ip dosed BALB/c mouse assessed as reduction in tumor weight administered once daily for 33 days and measured every 3 days during compound dosing; format: functional, organism-based
SK-OV-3 [35] = test: Induction of apoptosis in human SKOV3 cells assessed as late apoptotic cells at 3 uM after 48 hrs by Annexin V-FITC/propidium iodide staining based FACS analysis (reference value: 5.97%); format: functional

COc1cccc(-c2cccc(NC(=O)CCc3cccc4c3B(O)OC4)c2)c1
efflux ratio [1]: 1.36 | Activity (SK-OV-3 [2]): Dose-dependent effect | Activity (NCI-H460 [3]): Active | Activity [4]: Non-Toxic | Activity (SK-OV-3 [5]): 0.808% | selectivity ratio [6]: 100 | clearance [7]: 62.5 mL/min/kg | Cmax [8]: 434 ng/mL | IC50 (SK-OV-3 [9]): 33 nM | viability at 1 µM (SK-OV-3 [10]): 71% | Activity (SK-OV-3 [11]): 0.593% | Vd [12]: 7.63 L/kg | viability at 3 µM (SK-OV-3 [13]): 67.8% | IC50 (WI-38): 3200 nM | IC50 (HCT-116): 260 nM | Activity (NCI-H460 [14]): Active | Activity (SK-OV-3 [15]): 14.5% | inhibition (SK-OV-3 [16]): Active | half-life [17]: 1.4 h | Tmax [18]: 0.2 h | bioavailability [19]: 19.5% | Activity (SK-OV-3 [20]): 15.4% | IC50 (MDA-MB-231): 37 nM | Activity (SK-OV-3 [21]): 12.8% | viability at 10 µM (SK-OV-3 [22]): 48.1% | half-life [23]: 2.2 h | inhibition [24]: inactive | Papp A→B [25]: 19.5 ×10⁻⁶ cm/s | Activity (NCI-H460 [26]): Active | AUC(0-inf) [27]: 551 ng·h/mL | Activity (SW480 [28]): Dose-dependent effect | Activity (SK-OV-3 [29]): 20.6% | Activity (SK-OV-3 [30]): 30.7% | AUC(0-inf) [31]: 547 ng·h/mL | Papp B→A [32]: 26.5 ×10⁻⁶ cm/s | Activity (SK-OV-3 [33]): 0.505% | Activity (SW480 [34]): Dose-dependent effect | Activity (SK-OV-3 [35]): 17.1%
